Here are results for one compound from patent US9817000B2, “Method for identifying compounds that modulate a T2R taste receptor” (The Regents of the University of California, priority 1999, dated 2017).

This experiment addresses T1, mT2R5 coupling to Gαs, Gαi, Gαq or Gαo (Mus musculus, UniProt Q9JKT4).
T1 construct: infectious Bacmid containing rhodopsin tagged mT2R5 (DBA/2-allele) was produced using the Bac-to-Bac system; rhodopsin tag (rho); made in house; host or cells: insect larval cells infected with recombinant Bacmid (Bac-to-Bac); membrane preparation
T1 sequence (Q9JKT4 1-300): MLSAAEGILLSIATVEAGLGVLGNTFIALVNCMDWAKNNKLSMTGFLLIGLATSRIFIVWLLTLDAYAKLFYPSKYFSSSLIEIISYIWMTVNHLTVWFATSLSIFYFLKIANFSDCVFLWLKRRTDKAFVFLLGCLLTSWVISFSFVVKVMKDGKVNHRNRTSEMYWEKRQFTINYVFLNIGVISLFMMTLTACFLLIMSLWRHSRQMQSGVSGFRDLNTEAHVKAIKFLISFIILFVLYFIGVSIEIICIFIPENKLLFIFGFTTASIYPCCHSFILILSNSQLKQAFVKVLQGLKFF
Briefly: Tastant-induced GTPγS binding to other G-protein α-subunits with mT2R5 membranes. Type of experiment: biochemical. The procedure:
To investigate the selectivity of T2R-G-protein coupling, mT2R5 was chosen for study because its activation by cycloheximide recapitulates mouse taste responses. Rho-tagged mT2R5 and gustducin were prepared using a baculovirus expression system. mT2R5-containing membranes were incubated with various purified G-proteins, including gustducin, and measured tastant-induced GTP-γS binding (Hoon et al., Biochem J 309:629-636 (1995)). Specifically, infectious Bacmid containing rhodopsin tagged mT2R5 (DBA/2-allele) was produced using the Bac-to-Bac system (Lifetechnologies, MD). Insect larval cells were infected for 60 h with recombinant Bacmid and membranes were prepared as described previously (Ryba and Tirindelli, J Biol Chem, 270:6757-6767 (1995)). Peripheral proteins were removed by treatment with 8 M urea and membranes were resuspended in 10 mM HEPES pH7.5, 1 mM EDTA and 1 mM DTT. The expression of rho-mT2R5 was assessed by Western blot using mAb B6-30 and quantitated by comparison with known amounts of rhodopsin. Approximately 300 pmol of rho-mT2R5 could be obtained from 2×10^8 infected cells. […] Receptor-catalyzed exchange of GDP for GTPγS on gustducin and other G-protein α-subunits was measured in the presence of 10 nM rho-mT2R5, 100 μM GDP, and 20 μM Gβ1γ8. […]
For orientation: GTPγS resists hydrolysis and so accumulates on activated G proteins.

As to `C[C@@H]1C[C@@H]([C@H](O)CC2CC(=O)NC(=O)C2)C(=O)[C@@H](C)C1` [cycloheximide], the “coupling of mT2R5 to other G-proteins” value was “no coupling”.
